Several values for one entry are separate records, joined by “and”; a condition that tells them apart may be missing. Equal entries are not always repeated.
Experiments:
NTCP [1] = biological target: T1, NTCP (Homo sapiens, UniProt Q14973); experiment: [3H]TC transport (bile acid uptake) inhibition in NTCP-HEK293 cells; type: cell-based
T1 construct: expressed in transfected cells
T1 sequence (Q14973 1-349): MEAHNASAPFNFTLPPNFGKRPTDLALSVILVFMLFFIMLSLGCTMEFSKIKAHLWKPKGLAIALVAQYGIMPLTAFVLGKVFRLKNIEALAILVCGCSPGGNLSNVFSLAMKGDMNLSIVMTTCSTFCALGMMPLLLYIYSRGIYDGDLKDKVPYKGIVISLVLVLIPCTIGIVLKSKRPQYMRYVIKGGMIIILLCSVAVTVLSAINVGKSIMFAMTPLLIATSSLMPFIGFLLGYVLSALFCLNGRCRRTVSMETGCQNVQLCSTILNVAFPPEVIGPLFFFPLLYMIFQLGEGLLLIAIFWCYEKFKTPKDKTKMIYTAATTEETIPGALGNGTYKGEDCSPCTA
Method: (§1) The major goal of the present study was to analyze in parallel the effect of inhibitors on both, bile acid transport via NTCP and myr-preS1_2-48 lipopeptide binding to NTCP in a cell culture system. […] NTCP-HEK293 cells were seeded onto 96-well plates and were incubated with tetracycline in order to induce expression of the human NTCP protein. […] Experiments were performed with solvent alone (set to 100%) and with increasing concentrations of the indicated inhibitors. […] Half maximal inhibitory concentrations (IC50) were calculated by nonlinear regression analysis using the equation log(inhibitor) versus response (GraphPad Prism). […] Data represent means ± SD of quadruplicate determinations of representative experiments. […] In parallel, [^3H]preS1 peptide binding experiments were performed with a tritium-labelled myr-preS1_2-48 lipopeptide -HBV subgenotype D3- that was purchased from Pharmaron (120 Ci/mmol, 1 mCi/ml, Cardiff, UK). […] Experiments were stopped after 10 min by two-times washing with ice-cold PBS. For 0% uptake/binding control, the NTCP-HEK293 cells were not induced with tetracycline (-tet). […] Transport rates and [^3H]preS1 binding were determined in counts per minute (cpm). […] IC50 values were calculated from quadruplicate determinations by GraphPad Prism 6 (GraphPad, San Diego, CA, USA).

NTCP [2] = biological target: T1, NTCP; experiment: [3H]preS1 (myr-preS1_2-48 lipopeptide) binding inhibition in NTCP-HEK293 cells; details: for IC50: NTCP-HEK293 cells; for Selectivity index: ratio of mean IC50 [3H]TC transport inhibition / IC50 [3H]preS1 binding inhibition
Method: as §1

[3] = 95% confidence interval, inhibition of 1 µM [3H]TC uptake, NTCP-HEK293 cells, 10 min, 37 °C, read-out: IC50 ([3H]TC uptake)
[4] = 95% confidence interval, inhibition of 5 nM [3H]preS1 binding, 10 min, 37 °C, read-out: IC50 ([3H]preS1 binding)
[5] = IC50 ([3H]preS1 binding), 95% confidence interval, inhibition of 5 nM [3H]preS1 binding, 10 min, 37 °C
[6] = mean IC50, 5 nM [3H]preS1, standard pH 7.4, read-out: IC50 [3H]preS1 binding inhibition

SMILES | IC50 (NTCP [1]; [3]) [µM] | IC50 (NTCP [2]; [4]) [µM] | Selectivity index (NTCP [2]) | IC50 (NTCP [2]; [6]) | other results
CC(=O)OC[C@]12CC[C@@H](C3(C)CO3)[C@@H]1[C@H]1CC[C@@H]3[C@@]4(C)CC[C@H](OC(C)=O)C(C)(C)[C@@H]4CC[C@@]3(C)[C@]1(C)CC2 (stereo partly drawn) [Compound 26, 3,28-Di-O-acetyl-20,30-epoxybetulin] | 332 to 891 | 26.5 to 73 | 12 | – | –
C=C(C)[C@@H]1CC[C@]2(C)CC[C@]3(C)[C@H](CC[C@@H]4[C@@]5(C)CC[C@H](O)C(C)(C)[C@@H]5CC[C@]43C)[C@@H]12 [Compound 3, Lupeol] | > 1000 | – | – | – | IC50 (NTCP [1]): > 1000 µM; IC50 (NTCP [2]; [5]): 26.9 to 97.9 µM
C=C(C)[C@@H]1CC[C@]2(C=O)CC[C@]3(C)[C@H](CC[C@@H]4[C@@]5(C)CCC(=O)C(C)(C)[C@@H]5CC[C@]43C)[C@@H]12 [Compound 18, Betulonaldehyde] | 88.5 to 175 | – | – | – | –
C=C(C)[C@@H]1CC[C@]2(COC3CCCCO3)CC[C@]3(C)[C@H](CC[C@@H]4[C@@]5(C)CC[C@H](OC(C)=O)C(C)(C)[C@@H]5CC[C@]43C)[C@@H]12 (stereo partly drawn) [Compound 23, 3-O-Acetyl-28-(tetrahydro-2H-pyran-2-yl)betulin] | 119 to 947 | 11 to 114 | 10 | – | –
C=C(C)C1CCC2(COC(C)=O)CCC3(C)C(CCC4C5(C)CCC(OC(C)=O)C(C)(C)C5CCC43C)C12 (stereo not drawn) [Compound 24, 3,28-Di-O-acetylbetulin] | > 1000 | 52.6 to 756 | > 5 | 199 µM | [3H]TC transport inhibition (in words) (NTCP [1]; 0.1–1,000 µM, NTCP-HEK293 cells): no transport inhibition at all; IC50 (NTCP [1]; mean IC50, […] µM [3H]TC, NTCP-HEK293 cells, standard pH 7.4, read-out: IC50 [3H]TC transport inhibition): > 1000 µM
C=C(C)[C@@H]1CC[C@]2(COC(=O)CCC(=O)O)CC[C@]3(C)[C@H](CC[C@@H]4[C@@]5(C)CC[C@H](O)C(C)(C)[C@@H]5CC[C@]43C)[C@@H]12 [Compound 8, 28-O-Succinoylbetulin] | 5.35 to 10.6 | 1.61 to 4.11 | 3 | 2 to 3 µM | IC50 (NTCP [1]; pH shift experiment, pH 5.5 (DMEM acidified with HCl), read-out: IC50 [3H]TC uptake inhibition at pH 5.5): 200 µM; IC50 (NTCP [1]; pH shift experiment, pH 7.4, read-out: IC50 [3H]TC uptake inhibition at pH 7.4): 8 µM; IC50 [3H]preS1 binding inhibition at pH 5.5 versus pH 7.4 (NTCP [2]; pH lowered from 7.4 to 5.5): did not change
C=C(C)[C@@H]1CC[C@]2(COC3CCCCO3)CC[C@]3(C)[C@H](CC[C@@H]4[C@@]5(C)CC[C@H](O)C(C)(C)[C@@H]5CC[C@]43C)[C@@H]12 (stereo partly drawn) [Compound 13, 28-(Tetrahydro-2H-pyran-2-yl)betulin] | 116 to 628 | 9.34 to 19.5 | 19 | 11 to 50 µM | –
C=C(C)[C@@H]1CC[C@]2(C(=O)OC)CC[C@]3(C)[C@H](CC[C@@H]4[C@@]5(C)CC[C@H](O)C(C)(C)[C@@H]5CC[C@]43C)[C@@H]12 [Compound 5, Methyl betulinate] | – | – | – | – | IC50 (NTCP [1]; read-out: IC50 ([3H]TC uptake)): 47.1 to 100 µM; IC50 (NTCP [2]; [5]): 12.7 to 83.5 µM
C=C(C)C1CCC2(C=NO)CCC3(C)C(CCC4C5(C)CCC(O)C(C)(C)C5CCC43C)C12 (stereo not drawn) [Compound 6, Betulinaldehyde oxime] | 360 to 759 | 6.61 to 18.3 | 48 | 11 µM | –
C=C(C)[C@@H]1CC[C@]2(C(=O)O)CC[C@]3(C)[C@H](CC[C@@H]4[C@@]5(C)CC[C@H](OC(C)=O)C(C)(C)[C@@H]5CC[C@]43C)[C@@H]12 [Compound 21, 3-O-Acetylbetulinic acid] | 7.19 to 30.3 | 1.81 to 5.31 | 5 | 2 to 3 µM and < 10 µM | –
C=C(C)[C@@H]1CC[C@]2(COC(=O)CC(C)(C)CC(=O)O)CC[C@]3(C)[C@H](CC[C@@H]4[C@@]5(C)CC[C@H](OC(=O)CC(C)(C)CC(=O)O)C(C)(C)[C@@H]5CC[C@]43C)[C@@H]12 [Compound 12, 3,28-Di-O-(3,3-dimethylglutaroyl)betulin] | 4.17 to 10.7 | 4.97 to 10.1 | 1 | – | –
C=C(C)[C@@H]1CC[C@]2(COC(=O)CC(C)(C)CC(=O)O)CC[C@]3(C)[C@H](CC[C@@H]4[C@@]5(C)CC[C@H](O)C(C)(C)[C@@H]5CC[C@]43C)[C@@H]12 [Compound 10, 28-O-(3,3-Dimethylglutaroyl)betulin] | 3 to 5.91 | 2.48 to 7.02 | 1 | < 10 µM | –
CC1(COc2ccc(CC3SC(=O)NC3=O)cc2)CCCCC1 (stereo not drawn) [ciglitazone, reference compound] | – | – | – | 1.3 µM | –
